Results as given in patent US9067966B2, “Lupeol-type triterpene derivatives as antivirals” (priority 2009, dated 2015).
Like-named read-outs stand apart in the source and are kept apart here.

Tested on: HIV-1 strain 92-HT599
Test: Anti HIV-1 p24 assay, strain 92-HT599 in MT2 cells
Assay type: cell-based
Conditions: for IC50: MT2 cells infected with HIV-1 92-HT599, p24, 96 hours
Method: MT2 cells were infected with the HIV-1 strain 92-HT599 (10TCID50/30000 cells). The infected cells are plated at the concentration of 30000 cells per well in a 96 well assay micro plate. A test compound was added to the micro plate in a defined format with the final concentration of DMSO (vehicle) being not more than 1%. Incubation was carried out in a CO2 incubator for 96 hours for viral infection. At the end of incubation period an aliquot from each well was taken for p24 estimation. The quantitation of p24 is an index for antiviral activity of the compound. Percent inhibition was calculated with reference to control values (vehicle).
P24 estimation was carried out using an Advance Biosciences kit as per the procedure as detailed by supplier.
[…] was made by dissolving test compound in DMSO. Subsequent dilutions were made with DMSO to make necessary working stocks (100×).

[1] = Human immunodeficiency virus 1, MT2 cells, HIV-1 92-HT599, p24, concentration 0.1 μM, read-out: Percent inhibition
[2] = Human immunodeficiency virus 1, MT2 cells, HIV-1 92-HT599, p24, concentration 1 μM, read-out: Percent inhibition
[3] = Human immunodeficiency virus 1, MT2, read-out: Percent inhibition

| Structure (SMILES) | inhibition at 0.1 µM [1] | inhibition at 1 µM [2] | IC50 (Human immunodeficiency virus 1) | also measured |
| --- | --- | --- | --- | --- |
| C=C(C)[C@@H]1CC[C@]2(C(=O)N[C@H]3C[C@@H](C(=O)N4CCCC4)C3(C)C)CC[C@]3(C)[C@H](CC[C@@H]4[C@@]5(C)CC[C@H](O)C(C)(C)[C@@H]5CC[C@]43C)[C@@H]12 [Example 14, (1R,3aS,5aR,5bR,7aR,9S,11aR,11bR,13aR,13bR)-N-((1S,3R)-2,2-dimethyl-3-(pyrrolidine-1-carbonyl)cyclobutyl)-9-hydroxy-5a,5b,8,8,11a-pentamethyl-1-(prop-1-en-2-yl)icosahydro-1H-cyclopenta[a]chrysene-3a-carboxamide] | 71% | 32% | – | – |
| C=C(C)[C@@H]1CC[C@]2(C(=O)N[C@@H]3CC[C@H](CN4CCOCC4)C3)CC[C@]3(C)[C@H](CC[C@@H]4[C@@]5(C)CC[C@H](O)C(C)(C)[C@@H]5CC[C@]43C)[C@@H]12 [Example 23, (1R,3aS,5aR,5bR,7aR,9S,11aR,11bR,13aR,13bR)-9-hydroxy-5a,5b,8,8,11a-pentamethyl-N-((1R,3S)-3-(morpholinomethyl)cyclopentyl)-1-(prop-1-en-2-yl)icosahydro-1H-cyclopenta[a]chrysene-3a-carboxamide] | 11% | 37% | – | – |
| C=C(C)[C@@H]1CCC2(C(=O)N3C4CCC3CC(n3c(C)nnc3C(C)C)C4)CC[C@]3(C)[C@H](CC[C@@H]4[C@@]5(C)CC[C@H](O)C(C)(C)[C@@H]5CC[C@]43C)[C@@H]12 (stereo partly drawn) [Example 25, ((1R,5aR,5bR,7aR,9S,11aR,11bR,13aR,13bR)-9-hydroxy-5a,5b,8,8,11a-pentamethyl-1-(prop-1-en-2-yl)icosahydro-1H-cyclopenta[a]chrysen-3a-yl)(3-(3-isopropyl-5-methyl-4H-1,2,4-triazol-4-yl)-8-azabicyclo[3.2.1]octan-8-yl)methanone] | 33% | 25% | – | – |
| C=C(C)[C@@H]1CC[C@]2(C(=O)N[C@@H]3C=C[C@H](CN4CCOCC4)C3)CC[C@]3(C)[C@H](CC[C@@H]4[C@@]5(C)CC[C@H](O)C(C)(C)[C@@H]5CC[C@]43C)[C@@H]12 [Example 26, (1R,3aS,5aR,5bR,7aR,9S,11aR,11bR,13aR,13bR)-9-hydroxy-5a,5b,8,8,11a-pentamethyl-N-((1S,4R)-4-(morpholinomethyl)cyclopent-2-enyl)-1-(prop-1-en-2-yl)icosahydro-1H-cyclopenta[a]chrysene-3a-carboxamide] | – | – | – | inhibition at 0.1 µM [3]: 52%; inhibition at 1 µM [3]: 53% |
| C=C(C)[C@@H]1CC[C@]2(C(=O)N[C@@H]3C[C@H](C(=O)N[C@H](C(=O)O)C(C)C)C3(C)C)CC[C@]3(C)[C@H](CC[C@@H]4[C@@]5(C)CC[C@H](O)C(C)(C)[C@@H]5CC[C@]43C)[C@@H]12 [Example 40, (S)-2-((1S,3R)-3-((1R,3aS,5aR,5bR,7aR,9S,11aR,11bR,13aR,13bR)-9-hydroxy-5a,5b,8,8,11a-pentamethyl-1-(prop-1-en-2-yl)icosahydro-1H-cyclopenta[a]chrysene-3a-carboxamido)-2,2-dimethylcyclobutanecarboxamido)-3-methylbutanoic acid] | 13% | 42% | – | – |
| C=C(C)[C@@H]1CC[C@]2(C(=O)N[C@@H]3C[C@H](C(=O)N4CCCC4)C3(C)C)CC[C@]3(C)[C@H](CC[C@@H]4[C@@]5(C)CC[C@H](O)C(C)(C)[C@@H]5CC[C@]43C)[C@@H]12 [Example 44, (1R,3aS,5aR,5bR,7aR,9S,11aR,11bR,13aR,13bR)-N-((1R,3S)-2,2-dimethyl-3-(pyrrolidine-1-carbonyl)cyclobutyl)-9-hydroxy-5a,5b,8,8,11a-pentamethyl-1-(prop-1-en-2-yl)icosahydro-1H-cyclopenta[a]chrysene-3a-carboxamide] | 15% | 43% | – | – |
| C=C(C)[C@@H]1CC[C@]2(C(=O)N[C@@H]3CC[C@H](CN4CCCC(C)C4)C3)CC[C@]3(C)[C@H](CC[C@@H]4[C@@]5(C)CC[C@H](OC(=O)CC(C)(C)C(=O)O)C(C)(C)[C@@H]5CC[C@]43C)[C@@H]12 (stereo partly drawn) [Example 51, 2,2-dimethyl-4-oxo-4-((1R,3aS,5aR,5bR,7aR,9S,11aR,11bR,13aR,13bR)-5a,5b,8,8,11a-pentamethyl-3a-((1R,3S)-3-((3-methylpiperidin-1-yl)methyl)cyclopentylcarbamoyl)-1-(prop-1-en-2-yl)icosahydro-1H-cyclopenta[a]chrysen-9-yloxy)butanoic acid] | – | – | 1 nM | – |
| C=C(C)[C@@H]1CC[C@]2(C(=O)N[C@@H]3C[C@H](C(=O)N4CCCCC4)C3(C)C)CC[C@]3(C)[C@H](CC[C@@H]4[C@@]5(C)CC[C@H](OC(=O)[C@@H]6C[C@H](C(=O)O)C6(C)C)C(C)(C)[C@@H]5CC[C@]43C)[C@@H]12 [Example 59, (1S,3R)-3-(((1R,3aS,5aR,5bR,7aR,9S,11aR,11bR,13aR,13bR)-3a-((1R,3S)-2,2-dimethyl-3-(piperidine-1-carbonyl)cyclobutylcarbamoyl)-5a,5b,8,8,11a-pentamethyl-1-(prop-1-en-2-yl)icosahydro-1H-cyclopenta[a]chrysen-9-yloxy)carbonyl)-2,2-dimethylcyclobutanecarboxylic acid] | – | – | 6 nM | – |
| C=C(C)[C@@H]1CC[C@]2(C(=O)N[C@H]3C[C@@H](C(=O)N4CCOCC4)C3(C)C)CC[C@]3(C)[C@H](CC[C@@H]4[C@@]5(C)CC[C@H](OC(=O)[C@@H]6C[C@H](C(=O)O)C6(C)C)C(C)(C)[C@@H]5CC[C@]43C)[C@@H]12 [Example 61, (1S,3R)-3-(((1R,3aS,5aR,5bR,7aR,9S,11aR,11bR,13aR,13bR)-3a-((1S,3R)-2,2-dimethyl-3-(morpholine-4-carbonyl)cyclobutylcarbamoyl)-5a,5b,8,8,11a-pentamethyl-1-(prop-1-en-2-yl)icosahydro-1H-cyclopenta[a]chrysen-9-yloxy)carbonyl)-2,2-dimethylcyclobutanecarboxylic acid] | – | – | 7 nM | – |
| C=C(C)[C@@H]1CC[C@]2(C(=O)NC3CCC(CN4CCCCC4)C3)CC[C@]3(C)[C@H](CC[C@@H]4[C@@]5(C)CC[C@H](OC(=O)CCC(=O)O)C(C)(C)[C@@H]5CC[C@]43C)[C@@H]12 (stereo partly drawn) [Example 96, 4-oxo-4-((1R,3aS,5aR,5bR,7aR,9S,11aR,11bR,13aR,13bR)-5a,5b,8,8,11a-pentamethyl-3a-(3-(piperidin-1-ylmethyl)cyclopentylcarbamoyl)-1-(prop-1-en-2-yl)icosahydro-1H-cyclopenta[a]chrysen-9-yloxy)butanoic acid] | – | – | 0.1 nM | – |
| C=C(C)[C@@H]1CC[C@]2(C(=O)NC3CC(C(=O)NCCC(=O)N4CCOCC4)C3(C)C)CC[C@]3(C)[C@H](CC[C@@H]4[C@@]5(C)CC[C@H](O)C(C)(C)[C@@H]5CC[C@]43C)[C@@H]12 (stereo partly drawn) [Example 97, (1R,3aS,5aR,5bR,7aR,9S,11aR,11bR,13aR,13bR)-N-(2,2-dimethyl-3-(3-morpholino-3-oxopropylcarbamoyl)cyclobutyl)-9-hydroxy-5a,5b,8,8,11a-pentamethyl-1-(prop-1-en-2-yl)icosahydro-1H-cyclopenta[a]chrysene-3a-carboxamide] | 37% | 67% | – | – |
| C=C(C)[C@@H]1CC[C@]2(C(=O)NC3CC(C(=O)NCCC(=O)N4CCCC4)C3(C)C)CC[C@]3(C)[C@H](CC[C@@H]4[C@@]5(C)CC[C@H](O)C(C)(C)[C@@H]5CC[C@]43C)[C@@H]12 (stereo partly drawn) [Example 98, (1R,3aS,5aR,5bR,7aR,9S,11aR,11bR,13aR,13bR)-N-(2,2-dimethyl-3-(3-oxo-3-(pyrrolidin-1-yl)propylcarbamoyl)cyclobutyl)-9-hydroxy-5a,5b,8,8,11a-pentamethyl-1-(prop-1-en-2-yl)icosahydro-1H-cyclopenta[a]chrysene-3a-carboxamide] | 1% | 50% | – | – |
| C=C(C)[C@@H]1CC[C@]2(C(=O)N[C@@H]3CC[C@H](CN4CCC(Cc5ccccc5)CC4)C3)CC[C@]3(C)[C@H](CC[C@@H]4[C@@]5(C)CC[C@H](OC(=O)CC(C)(C)C(=O)O)C(C)(C)[C@@H]5CC[C@]43C)[C@@H]12 [Example 99, 4-((1R,3aS,5aR,5bR,7aR,9S,11aR,11bR,13aR,13bR)-3a-((1R,3S)-3-((4-benzylpiperidin-1-yl)methyl)cyclopentylcarbamoyl)-5a,5b,8,8,11a-pentamethyl-1-(prop-1-en-2-yl)icosahydro-1H-cyclopenta[a]chrysen-9-yloxy)-2,2-dimethyl-4-oxobutanoic acid] | 89% | 97% | – | – |
